According to patent US11000537B2, “Composition comprising novel ginsenoside” (AMOREPACIFIC CORPORATION, priority 2018, dated 2021):

Key:
Type in all cases: cell-based
[1] = system: adipocyte cell 3T3-L1; assay: fat accumulation in adipocytes (Oil-red O staining)
Experimental: The adipocyte cell 3T3-L1 purchased from the International Center for Biological Resources (ATCC) were placed in Dulbecco's Modified Eagle's Medium (Sigma) to which 10% fetal bovine serum (Hyclone) and 1% penicillin/streptomycin (Sigma) were added, and cultured in a 5% CO2 incubator. In order to differentiate preadipocytes into adipocytes, the cells were filled in a culture plate and cultured. After 48 hours, the cells were replaced with Dulbecco's modified eagle medium (DMEM) to which 10% of fetal bovine serum (Hyclone), 0.5 mM of 3-isobutyl-1-methylxanthine (Sigma), 1 μM of dexamethasone (Sigma), 5 μg/ml of insulin (Sigma), 1% of penicillin/streptomycin (Sigma) were added and further cultured for 48 hours. […] As a control to confirm the effect of inhibiting adipocyte differentiation, 20 μM of bisphenol A diglycidyl ether (BADGE) (Sigma), a PPARγ (Peroxisome proliferator-activated receptor gamma) antagonist, was used. Thereafter, the cells were further cultured for 10 days while being replaced with a medium containing 10% FBS and 5 μg/ml insulin and 1% penicillin/streptomycin at two-day intervals to induce adipocyte differentiation.
Differentiated adipocytes treated with each of the seven types of ginsenosides were fixed with formaldehyde solution (Sigma), stained with Oil-red O staining solution (Sigma), and then dissolved with isopropanol (Sigma), and then the amount of the stained fat was quantified by measuring at 490 nm absorbance.

[2] = system: CD36; assay: CD36 adipocyte marker gene expression (qPCR)
Experimental: The adipocyte cell 3T3-L1 purchased from the International Center for Biological Resources (ATCC) were placed in Dulbecco's Modified Eagle's Medium (Sigma) to which 10% fetal bovine serum (Hyclone) and 1% penicillin/streptomycin (Sigma) were added, and cultured in a 5% CO2 incubator. In order to differentiate preadipocytes into adipocytes, the cells were filled in a culture plate and cultured. After 48 hours, the cells were replaced with Dulbecco's modified eagle medium (DMEM) to which 10% of fetal bovine serum (Hyclone), 0.5 mM of 3-isobutyl-1-methylxanthine (Sigma), 1 μM of dexamethasone (Sigma), 5 μg/ml of insulin (Sigma), 1% of penicillin/streptomycin (Sigma) were added and further cultured for 48 hours. During 48 hours of culture, seven types of ginsenoside reagents (GS #01-GS #06, GS #10) extracted from Ginseng seeds were treated at 10 μM each to affect adipocyte differentiation. […]
After the differentiation of adipocytes in the same manner as above, the expressions of PPARγ (Peroxisome proliferator-activated receptor gamma), aP2 (Adipocyte protein 2) and CD36 were observed as adipocyte marker genes. […] Bio-Rad's CFX96 real-time quantitative PCR (qPCR) instrument was used to quantify the expression levels of each gene. […]

[3] = system: SREBP1a; assay: SREBP1a gene expression in HepG2 (qPCR); details: 10 μM, 24 hours, FIG. 30
Experimental: The hepatocyte cell line HepG2 purchased from the International Center for Biological Resources (ATCC) were placed in Dulbecco's Modified Eagle's Medium (Sigma) to which 10% fetal bovine serum (Hyclone) and 1% penicillin/streptomycin (Sigma) were added, and cultured in a 5% CO2 incubator. As a positive control, Simvastatin (Sigma Aldrich; St. Louis, Mo.), which is known as a lipid lowering agent of the HMG-CoA reductase inhibitor family and reduces cholesterol production in the blood, was used. For the experiment, seven types of ginsenoside (GS #01-GS #06, GS #10; 10 μM each) extracted from Ginseng seeds were treated for 24 hours, and the cells were collected. RNA was extracted using Trizol™ reagent (Thermo Fisher Scientific) and cDNA was synthesized using RevertAid™ 1st strand cDNA synthesis kit (Thermo Fisher Scientific). Bio-Rad's CFX96 real-time quantitative PCR (qPCR) instrument was used to observe the expression of HMG-CoA (3-hydroxy-3-methyl-glutaryl-coenzyme A) reductase, a key gene for cholesterol synthesis. In the same way, LDL (low-density lipoprotein) was absorbed into cells, and the expression of LDL receptor (LDLR), which serves to lower blood cholesterol levels, was observed.
LDLR is controlled by the SREBP1a gene. […]

Question: Which “fat accumulation inhibitory effect in adipocytes” value ([1]; 1 μM and 10 μM, compared with Rg1, Rg3, Rb1, FIG. 38) does the source give for `CC1(C)C(=O)CC[C@@]2(C)C1[C@@H](O[C@H]1OC(CO)[C@H](O)C(O)C1O[C@H]1OC(CO)[C@H](O)C(O)C1O)C[C@]1(C)C2C[C@@H](O)C2C([C@]3(C)CC[C@H](C(C)(C)O)O3)CC[C@]21C` (stereo partly drawn) [GS #10, (20S,24R)-6-O-β-D-glucopyranosyl(1→2)-β-D-glucopyranoside-dammar-3-one-20,24-epoxy-6a,12b,25-triol] here?
Answer: far superior in adipocyte differentiation inhibition and fat accumulation inhibitory effect

Question: And the “fat accumulation inhibitory effect in adipocytes” value ([1]; 10 μM during 48 hours of differentiation, FIG. 34)?
Answer: most excellent fat accumulation inhibitory effect

Question: What about the “adipocyte differentiation inhibition, CD36 gene expression” value ([2]; 1 μM and 10 μM, compared with Rg1, Rg3, Rb1, FIG. 41) of the same compound?
Answer: far superior in adipocyte differentiation inhibition

Question: And the “adipocyte differentiation inhibition, CD36 gene expression” value ([2]; 10 μM, FIG. 37)?
Answer: more effective in inhibiting the adipocyte differentiation

Question: What about the “expression of SREBP1a” value [3] of the same compound?
Answer: did not inhibit the expression of SREBP1a but rather tended to increase the expression thereof
